{"source": "patent US20070054886A1", "about": "“Ras antagonists for treating neurodegenerative disorders” (RAMOT AT TEL AVIV UNIVERSITY, LTD., priority 2003, published 2007)", "system": "mice subjected to closed head injury (CHI)", "assay": "Neurobehavioral evaluation (neurological severity score, NSS) of CHI mice", "type": "in vivo, mouse", "excerpt": "The neurological severity score (NSS) is a tool for assessing an animal's functional status. It is based on the ability of the animal to perform different motor and behavioral tasks representing motor ability, balancing, and alertness (Beni-Adani et al., 2001). Scores range from zero, achieved by healthy uninjured animals, to a maximum of 10, indicating severe neurological dysfunction, with failure of all tasks. The NSS obtained 1 hr after trauma reflects the initial severity of injury and is inversely correlated with neurological outcome. Animals were evaluated 1 hour after CHI, and again at 24 and 48 hrs and at 5 and 7 days. To assess the effect of FTS on neurological recovery, mice were randomly assigned to treatment with either FTS or vehicle (n=10 per group), administered immediately after the initial NSS evaluation. Each animal was assessed by an observer who was blinded to the treatment it had received. The extent of recovery (ΔNSS) was calculated as the difference between the NSS at 1 hr and at any subsequent time point. Thus, a higher ΔNSS reflects better recovery. This parameter therefore serves as a tool for evaluation of drug effects.", "data": [{"smiles": "CC(C)=CCC/C(C)=C/CC/C(C)=C/CSc1ccccc1C(=O)O", "note": "[FTS, farnesyl-thiosalicylic acid]", "values": [{"measurement": "median recovery after seven days (ΔNSS)", "setting": "mice processed for autoradiography and histology (4 FTS-treated), vehicle 0, p<0.05", "value": 2}, {"measurement": "mean ΔNSS on day 7 after injury", "setting": "mice, FTS 5 mg/kg i.p. 1 hr after CHI, n=10, controls 1.7", "value": 4.2}, {"measurement": "NSS 1 hour after injury", "setting": "mice, baseline before treatment, FTS-treatment group, n=10, mean±SD, scale 0-10", "value": "6.7±0.3"}, {"measurement": "reduction of CHI-induced neurological deficits / improvement of neurological status (extent of recovery)", "setting": "mice, single dose FTS 5 mg/kg, up to 7 days after CHI, P<0.0001", "value": 60, "unit": "%"}]}]}
